Source: patent publication US7060718B2, “Arylsulfonanilide ureas” (Amgen Inc., priority 1998, dated 2006)

Key:
HeLa cells = assay: Tumor cell growth arrest in culture, Alamar Blue assay (HeLa); type: cell-based; conditions: Homo sapiens, concentration at which total growth inhibition occurred, 72 hours of treatment, triplicate
Description: (§1) The ability of test compounds to arrest the growth of tumor cells in culture was evaluated using HeLa cells, derived from a human cervical adenocarcinoma, and obtained from the American Type Culture Collection (ATCC, Rockville, Md.). Cells were grown in culture in the usual way. Test compounds were dosed in triplicate at concentrations ranging from 5 μM to 50 μM, and the cellular growth rate was calculated by harvesting the cells after 72 hours of treatment and measuring their metabolic activity using an Alamar Blue assay (Biosource International, Camarillo, Calif.). The degree of metabolic activity in the culture is proportional to the number of living cells. See, Ahmed et al., J. Immunol. Methods 1994, 170, 211. The change in growth rate for cells treated with test compounds was normalized to the growth of untreated cells and a plot of normalized cellular growth vs. compound concentration was made. The concentration at which total growth inhibition (TGI) occurred was determined. Compounds were similarly evaluated for cell growth inhibition using MCF-7/ ADR cells.

MCF-7/ADR cells = assay: Cell growth inhibition (MCF-7/ADR), evaluated similarly; type: cell-based; conditions: Homo sapiens, NCI/ADR-RES, concentration at which total growth inhibition occurred
Description: as §1

melting point [°C] | SMILES | IC (TGI) (HeLa cells) [µM] | IC (TGI) (MCF-7/ADR cells) [µM]
208 | COc1ccc(NS(=O)(=O)c2c(F)c(F)c(F)c(F)c2F)cc1NC(=O)NCc1ccco1 [Compound 8] | < 5 | < 5
 | COCCNC(=O)Nc1cc(NS(=O)(=O)c2c(F)c(F)c(F)c(F)c2F)ccc1OC [Compound 21] | 5 to 40 | > 40
 | COc1ccc(NS(=O)(=O)c2c(F)c(F)c(F)c(F)c2F)cc1NC(=O)NCC(O)CO (centres unmarked) [Compound 10] | 5 to 40 | 5 to 40
 | COc1ccc(NS(=O)(=O)c2c(F)c(F)c(F)c(F)c2F)cc1NC(=O)N(CCO)CCO [Compound 15] | > 40 | > 40
 | COc1ccc(NS(=O)(=O)c2c(F)c(F)c(F)c(F)c2F)cc1NC(=O)Nc1nncs1 [Compound 20] | 5 to 40 | 5 to 40
 | COc1ccc(NS(=O)(=O)c2c(F)c(F)c(F)c(F)c2F)cc1NC(=O)NC(CO)CO [Compound 12] | > 40 | > 40
226 | COc1ccc(NS(=O)(=O)c2c(F)c(F)c(F)c(F)c2F)cc1NC(N)=O [Compound 5] | < 5 | < 5
 | COc1ccc(NS(=O)(=O)c2c(F)c(F)c(F)c(F)c2F)cc1NC(=O)N1CCOCC1 [Compound 9] | 5 to 40 | 5 to 40
 | COc1ccc(NS(=O)(=O)c2c(F)c(F)c(F)c(F)c2F)cc1NC(=O)NCCCO [Compound 14] | 5 to 40 | > 40
 | COc1ccc(NS(=O)(=O)c2c(F)c(F)c(F)c(F)c2F)cc1NC(=O)Nc1nnn[nH]1 [Compound 19] | < 5 | 5 to 40
140 to 144 | COc1ccc(NS(=O)(=O)c2c(F)c(F)c(F)c(F)c2F)cc1NC(=O)n1nccc1N [Compound 7] | < 5 | < 5
 | COc1ccc(NS(=O)(=O)c2c(F)c(F)c(F)c(F)c2F)cc1NC(=O)NCC(N)=O [Compound 11] | > 40 | > 40
 | COc1ccc(NS(=O)(=O)c2c(F)c(F)c(F)c(F)c2F)cc1NC(=O)n1ncnc1N [Compound 18] | < 5 | < 5
 | COc1ccc(NS(=O)(=O)c2c(F)c(F)c(F)c(F)c2F)cc1NC(=O)NCCO [Compound 13] | 5 to 40 | > 40
164 to 170 | CCOC(=O)CNC(=O)Nc1cc(NS(=O)(=O)c2c(F)c(F)c(F)c(F)c2F)ccc1OC [Compound 6] | > 40 | > 40
 | COc1ccc(NS(=O)(=O)c2c(F)c(F)c(F)c(F)c2F)cc1NC(=O)Nc1nccs1 [Compound 17] | > 40 | > 40
 | COc1ccc(NS(=O)(=O)c2c(F)c(F)c(F)c(F)c2F)cc1NC(=O)Nc1ccccc1 [Compound 16] | 5 to 40 | > 40
